Values of other authors as cited in US7947313B2, “Compositions for diabetes treatment and prophylaxis” (Ayurvedic-Life International, LLC, priority 2003, dated 2011).

Columns and labels:
[1] = Fletcher et al. 1999
rat chorda tympani nerve = settings: stimuli such as glucose, sucrose, glycine and saccharine; Fletcher et al. 1999

## gurmarin
[1]
  effect in humans: no apparent effect
Rat chorda tympani nerve
  response of the rat chorda tympani nerve to sweet taste stimuli: suppressing the response
